In patent US20230068020A1, “MACROLIDE COMPOUND AND ITS USE OF TREATMENT CHRONIC RESPIRATORY DISEASE” (priority 2020, published 2023):

Assays:
THP-1 cell [1] = assay: Differentiation of monocyte to macrophage in THP-1 cell line; format: cell-based; settings: for EC50: THP-1 differentiate to macrophage, PMA, 96 hrs incubation; for Emax: read-out: Maximal activation level
Method: The THP-1 cell line was purchased from ATCC (American Type Culture Collection, Manassas, Va.). Cells were maintained in growth medium (RPMI-1640) with supplemented with 10% heat inactivated bovine serum, 100× Glutamax medium and 0.05 mM β-Mercaptoethanol at 37° C. under 5% CO2. Compounds were dissolved in 0.1% DMSO. Erythromycin was used as a positive control.
For the assessment of the effect of compounds of the present invention on differentiation of monocyte to macrophage in THP-1 cell line, cells were collected and centrifuged at 900 rpm for 4 minutes. The cell density was adjusted to 2.5×10^5/mL. cell suspension of 400 μL was added to each well of 48-well plate following the plate layout. PMA 1 mg, a compound can induce monocyte differentiation, was dissolved in 10 mL DMSO to form 100 μg/mL solution and aliquote it into 1 mL per vial. 1 mL solution can be further aliquoted into 10 μL per vial and stored the aliquots at −20° C. Make 10-fold dilution of PMA with DMSO and then 500-fold dilution with complete medium. 50 μL solution were then added to each well of 48-well plate following the plate layout. Erythromycin and compounds of examples at stock concentration of 10 mM was serially diluted at 10-fold in DMSO. 50 μL solution was added to each well of 48-well plate following the plate layout. After 96 hrs incubation at 37° C., 5% CO2, the plate was washed with DPBS for three times to remove non-adherent cells for three times. Complete medium 180 μL and alarmar blue 20 μL was added to each well. The fluorescent intensity was read at excitation 530 nm and emission 590 nm using PerkinElmer Victor3 after 3 hours plate incubation.
The differentiation activity of compounds of Examples is compared to that of 100 μM erythromycin and the results are shown in FIG. 1 and Table 3.

THP-1 cell [2] = assay: Cell viability (LD50) in THP-1 differentiation test; format: cell-based
Method: The medium lethal dose (LD50) is the dosage of a compound that reduces the cell viability by 50%, and is determined using non-linear logistic regression.

[3] = Homo sapiens, ratio of best effect of compound to that of erythromycin 100 uM, THP-1 differentiation

Structure (SMILES)	EC50 (THP-1 cell [1]; Homo sapiens) [µM]	Emax (THP-1 cell [1]; [3]) [%]	LD50 (THP-1 cell [2]; human) [µM]	EC50 (THP-1 cell [1]) [µM]	Maximal activation level (THP-1 cell [1]; ratio of best effect of compound to that of erythromycin 100 uM, THP-1 differentiation)	LD50 (THP-1 cell [2]; dosage that reduces the cell viability by 50%, THP-1) [µM]
CC[C@H]1OC(=O)[C@H](C)[C@@H](OC2CC(C)(OC)C(O)C(C)O2)[C@H](C)[C@@H](OC2CC(N(C)C)CC(C)O2)[C@@](C)(O)CC(C)[C@H](N)[C@H](C)[C@@H](O)[C@]1(C)O (stereo partly drawn) [LY101-30]	36.8 ± 20.1	610 ± 120	65.3 ± 7.1			
CC[C@H]1OC(=O)[C@H](C)[C@@H](O)[C@H](C)[C@@H](OC2CC(N(C)C)CC(C)O2)[C@@](C)(O)C[C@@H](C)/C(=N\OCOCCOC)[C@H](C)[C@@H](O)[C@]1(C)O (stereo partly drawn) [LY101-40]	106	180	100			
CC[C@H]1OC(=O)[C@H](C)[C@@H](OC2CC(C)(OC)C(O)C(C)O2)[C@H](C)[C@@H](OC2CC(NC)CC(C)O2)[C@@]2(C)CC(C)=C(O2)[C@H](C)[C@@H](O)[C@]1(C)O (stereo partly drawn) [LY101-6]				11.5 ± 3.2	3.9 ± 0.8	103.2 ± 11.4
CC[C@H]1OC(=O)[C@H](C)[C@@H](OC2CC(C)(OC)C(O)C(C)O2)[C@H](C)[C@@H](OC2CC(NC)CC(C)O2)[C@@](C)(O)C[C@@H](C)[C@H](O)[C@H](C)[C@@H](O)[C@]1(C)O (stereo partly drawn) [LY101-31]	32.8 ± 2.5	620 ± 150	115.0 ± 10.4			
CC[C@H]1OC(=O)[C@H](C)[C@@H](OC2CC(C)(OC)C(O)C(C)O2)[C@H](C)[C@@H](OC2CC(N(C)C)CC(C)O2)[C@@](C)(O)C[C@@H](C)CN(C)[C@H](C)[C@@H](O)[C@]1(C)O (stereo partly drawn) [LY101-44]	1.2 ± 0.2	450 ± 90	20.4 ± 8.4			
CC[C@H]1OC(=O)[C@H](C)[C@@H](OC2CC(C)(OC)C(O)C(C)O2)[C@H](C)[C@@H](OC2CC(N(C)C(C)=O)CC(C)O2)[C@@](C)(O)C[C@@H](C)CN(C)[C@H](C)[C@@H](O)[C@]1(C)O (stereo partly drawn) [LY101-48]	18.5 ± 4.2	420 ± 110	111.0 ± 13.6			
CC[C@H]1OC(=O)[C@H](C)[C@@H](OC2CC(C)(OC)C(O)C(C)O2)[C@H](C)[C@@H](OC2CC(N(C)C(C)C)CC(C)O2)[C@@](C)(O)C[C@@H](C)CN(C)[C@H](C)[C@@H](O)[C@]1(C)O (stereo partly drawn) [LY101-47]	4.3 ± 1.8	310 ± 110	64.7 ± 17.9			
